From patent US9751885B2, “Cyclopropanamine compound and use thereof” (Takeda Pharmaceutical Company Limited, priority 2012, dated 2017)
Counter-ions that a name gives are not always drawn. Like-named read-outs stand apart in the source and are kept apart here.

Columns and labels:
human LSD1(172-833) = human LSD1(172-833) (Homo sapiens (Human), UniProt O60341); experiment: Measurement of LSD1 inhibitory activity (time-resolved fluorescence, biotin-histone H3 mono methylated K4 peptide); type: biochemical
How it was run: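 Remaining signal detected by TR-FRET after 60 min with europium anti-histone H3 antibody and streptavidin-XL665 in potassium fluoride/0.1% BSA.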

MAO-A enzyme = MAO-A enzyme (Homo sapiens (Human), UniProt P21397); experiment: Measurement of MAO-A inhibitory activity (MAO-Glo Assay); type: biochemical
Method: The MAO-A inhibitory activity evaluation described below followed the protocol of MAO-Glo (registered trademark) Assay of Promega KK.
A test compound dissolved in 4% DMSO was added by 12.5 μL to 25 μL reaction solution (100 mM HEPES (pH 7.5), 5% glycerol) containing 400 ng of MAO-A enzyme (Sigma-Aldrich Co. LLC.), and the mixture was reacted at room temperature for 10 min. […] After reaction at room temperature for 60 min, Luciferine detection reagent (Promega KK) (50 μL) was added to terminate the reaction. After reaction at room temperature for min with stirring, the luminescence was measured by Envision (PerkinElmer). The MAO-A inhibitory rate (%) of the test compound was calculated by the following formula. inhibitory rate(%)=(1−(test compound count−blank)÷(control−blank))×100
The count of the MAO-A enzyme reaction mixture under compound non-addition conditions is indicated as control, and the count under compound non-addition and MAO-A enzyme non-addition conditions is indicated as blank.

[1] = system: white blood cell number, red blood cell number, platelet number; experiment: Evaluation of blood cell number in mouse; type: in vivo; conditions: oral, Day 2 after administration
Method: Evaluation of Blood Cell Number in Mouse
(§1) Male ICR mice (hereinafter mice) were acclimated for at least one week in a rearing facility. The mice were raised in a rearing room with controlled temperature and humidity under a 12:12 hour light-dark cycle, and allowed free ingestion of feed and water.
The compounds were suspended in 0.5% methylcellulose/0.02% citric acid/distilled water and orally administered. All compounds were administered to the mice at a dose of 1 mg/kg, 10 mg/kg, 50 mg/kg or 100 mg/kg (body weight). On Day 2 after the administration of the compound, the whole blood was collected.
Using Sysmex XT-1800i (Sysmex Corporation), the white blood cell number, red blood cell number, and platelet number in the collected whole blood per unit volume were measured. The influence of each compound on each blood cell number was determined by comparing the number with the mean of each blood cell number of the mouse without administration of the compound (control group), and the numerical value of each blood cell number of a mouse with the administration of the compound is shown in percentage. percentage (%) of blood cell number of compound administration group as compared to control group=(mean blood cell number of compound administration group mean blood cell number of compound non-administration group)×100

[2] = Evaluation of hippocampal distribution in mouse; type: in vivo; conditions: male ICR mice, 10 mg/kg oral; for concentration at 0.5 h: 0.5 hr after administration
Method: Evaluation of Hippocampal Distribution in Mouse
as §1
The compounds were suspended in 0.5% methylcellulose/0.02% citric acid/distilled water and orally administered. All compounds were administered to the mice at a dose of 10 mg/kg (body weight).
Blood samples were collected at 0.5 hr, or 1 hr, or 1.5 hr from compound administration, and the hippocampus was isolated simultaneously. The plasma concentration and hippocampus concentration of each test compound were measured by the LC/MS/MS method, the ratio (hippocampus/plasma concentration ratio) was calculated, and distribution into hippocampus was evaluated.

MAO-B enzyme = MAO-B enzyme (Homo sapiens (Human), UniProt P27338); experiment: Measurement of MAO-B inhibitory activity (MAO-Glo Assay); conditions: read-out: MAO-B IC50 value;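 note: luminescence read-out, compound preincubated 10 min with enzyme then reacted 60 min at room temperature, inhibition relative to enzyme reaction without compound, blank lacking enzyme and compound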
Method: The MAO-B inhibitory activity evaluation described below followed the protocol of MAO-Glo (registered trademark) Assay of Promega KK.
A test compound dissolved in 4% DMSO was added by 12.5 μL to 25 μL reaction solution (100 mM HEPES (pH 7.5), 5% glycerol, 10% DMSO) containing 400 ng of MAO-B enzyme (Sigma-Aldrich Co. LLC.), and the mixture was reacted at room temperature for 10 min. […] After reaction at room temperature for 60 min, Luciferine detection reagent (Promega KK) (50 μL) was added to terminate the reaction. After reaction at room temperature for 20 min with stirring, the luminescence was measured by Envision (PerkinElmer). The MAO-B inhibitory rate (%) of the test compound was calculated by the following formula. inhibitory rate(%)=(1−(test compound count−blank)÷(control−blank))×100
The count of the MAO-B enzyme reaction mixture under compound non-addition conditions is indicated as control, and the count under compound non-addition and MAO-B enzyme non-addition conditions is indicated as blank.

[3] = hippocampus, read-out: hippocampus concentration (mean)
[4] = plasma, read-out: plasma concentration (mean)
[5] = hippocampus, 1 hr after administration, read-out: hippocampus concentration (mean)
[6] = plasma, 1 hr after administration, read-out: plasma concentration (mean)

Chain of MAO-A enzyme (P21397 whole entry): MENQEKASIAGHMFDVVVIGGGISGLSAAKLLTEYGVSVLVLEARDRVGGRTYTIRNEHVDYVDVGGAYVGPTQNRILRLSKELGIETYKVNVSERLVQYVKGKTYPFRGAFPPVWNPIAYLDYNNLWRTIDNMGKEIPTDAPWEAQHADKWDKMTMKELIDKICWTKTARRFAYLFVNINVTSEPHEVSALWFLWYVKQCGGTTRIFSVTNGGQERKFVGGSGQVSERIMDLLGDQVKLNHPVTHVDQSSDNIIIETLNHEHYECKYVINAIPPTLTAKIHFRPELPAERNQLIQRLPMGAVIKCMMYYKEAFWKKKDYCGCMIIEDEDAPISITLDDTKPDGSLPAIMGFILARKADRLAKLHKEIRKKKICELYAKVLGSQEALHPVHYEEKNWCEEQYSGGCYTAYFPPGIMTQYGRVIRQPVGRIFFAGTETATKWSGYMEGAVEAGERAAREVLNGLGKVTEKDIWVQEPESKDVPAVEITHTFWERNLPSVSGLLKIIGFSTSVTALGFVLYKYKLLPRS
Chain of MAO-B enzyme (P27338 whole entry): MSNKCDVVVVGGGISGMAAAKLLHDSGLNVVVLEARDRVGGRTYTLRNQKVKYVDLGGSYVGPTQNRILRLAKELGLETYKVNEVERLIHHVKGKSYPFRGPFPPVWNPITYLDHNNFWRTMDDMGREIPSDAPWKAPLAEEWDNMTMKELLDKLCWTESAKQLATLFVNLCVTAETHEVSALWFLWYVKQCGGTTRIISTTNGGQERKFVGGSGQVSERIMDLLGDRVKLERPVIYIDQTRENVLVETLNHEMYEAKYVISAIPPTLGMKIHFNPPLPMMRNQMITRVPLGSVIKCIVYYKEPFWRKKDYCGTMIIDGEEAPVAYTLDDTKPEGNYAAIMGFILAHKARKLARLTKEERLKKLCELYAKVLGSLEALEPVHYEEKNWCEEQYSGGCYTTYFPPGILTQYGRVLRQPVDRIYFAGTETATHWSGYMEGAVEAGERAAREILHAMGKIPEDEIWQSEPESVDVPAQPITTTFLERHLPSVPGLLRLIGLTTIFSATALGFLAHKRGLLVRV

| Kp at 1 h ([2]; hippocampus/plasma, 1 hr after administration, read-out: hippocampus/plasma concentration ratio (mean)) | SMILES | IC50 (human LSD1(172-833)) | IC50 (MAO-A enzyme) | platelet number, percentage of compound administration group compared to control group, mean ([1]; 10 mg/kg) | red blood cell number, percentage of compound administration group compared to control group, mean ([1]; 10 mg/kg) | white blood cell number, percentage of compound administration group compared to control group, mean ([1]; 10 mg/kg) | platelet number, percentage of compound administration group compared to control group, mean ([1]; 100 mg/kg) | red blood cell number, percentage of compound administration group compared to control group, mean ([1]; 100 mg/kg) | white blood cell number, percentage of compound administration group compared to control group, mean ([1]; 100 mg/kg) | concentration at 0.5 h [2, 3] | concentration at 0.5 h [2, 4] | IC50 (MAO-B enzyme) | concentration at 1 h [2, 5] | concentration at 1 h [2, 6] |
| --- | --- | --- | --- | --- | --- | --- | --- | --- | --- | --- | --- | --- | --- | --- |
| – | Cc1ncc(NC(=O)c2cccc([C@@H]3C[C@H]3NCC3CC3)c2)s1 (relative stereo) [Example 79, 3-(trans-2-((cyclopropylmethyl)amino)cyclopropyl)-N-(2-methyl-1,3-thiazol-5-yl)benzamide dihydrochloride] | < 0.1 µM | > 10 µM | 92.4% | 101.1% | 122.4% | 92.8% | 101.6% | 96.3% | 569 ng/g | 759 ng/mL | > 10 µM | – | – |
| – | O=C(Nc1ccc(N2CCCC2=O)cc1)c1cccc([C@@H]2C[C@H]2NCC2CC2)c1 (relative stereo) [Example 82, 3-(trans-2-((cyclopropylmethyl)amino)cyclopropyl)-N-(4-(2-oxopyrrolidin-1-yl)phenyl)benzamide hydrochloride] | < 0.1 µM | > 10 µM | 104.6% | 100.5% | 81.2% | 94.6% | 99.9% | 135.5% | 58 ng/g | 5610 ng/mL | > 10 µM | – | – |
| – | O=C(Nc1cnn(CC2CC2)c1)c1cccc([C@@H]2C[C@H]2NCC2CCOCC2)c1 (relative stereo) [Example 87, N-(1-(cyclopropylmethyl)-1H-pyrazol-4-yl)-3-(trans-2-((tetrahydro-2H-pyran-4-ylmethyl)amino)cyclopropyl)benzamide dihydrochloride] | < 0.1 µM | > 10 µM | 111.7% | 96.8% | 94.6% | 105.2% | 100.7% | 101.1% | – | – | > 10 µM | 43 ng/g | 251 ng/mL |
| – | CN1CCC(N[C@@H]2C[C@H]2c2cccc(C(=O)Nc3cnn(CC4CC4)c3)c2)CC1 (relative stereo) [Example 202, N-(1-(cyclopropylmethyl)-1H-pyrazol-4-yl)-3-(trans-2-((1-methylpiperidin-4-yl)amino)cyclopropyl)benzamide trihydrochloride] | < 0.1 µM | > 10 µM | – | – | – | – | – | – | – | – | > 10 µM | – | – |
| – | O=C(Nc1cnn(CC2CC2)c1)c1cccc([C@@H]2C[C@H]2NC2CCC(F)(F)CC2)c1 (relative stereo) [Example 204, N-(1-(cyclopropylmethyl)-1H-pyrazol-4-yl)-3-(trans-2-((4,4-difluorocyclohexyl)amino)cyclopropyl)benzamide dihydrochloride] | < 0.1 µM | > 10 µM | – | – | – | – | – | – | – | – | > 10 µM | – | – |
| – | O=C(NC1CCC(F)(F)CC1)c1cccc([C@@H]2C[C@H]2NC2CCN(C3CC3)CC2)c1 (relative stereo) [Example 208, 3-(trans-2-((1-cyclopropylpiperidin-4-yl)amino)cyclopropyl)-N-(4,4-difluorocyclohexyl)benzamide dihydrochloride] | < 0.1 µM | > 10 µM | – | – | – | – | – | – | – | – | > 10 µM | – | – |
| – | Cc1ncc(NC(=O)c2cccc([C@@H]3C[C@H]3NC3CCC3)c2)s1 (relative stereo) [Example 210, 3-(trans-2-(cyclobutylamino)cyclopropyl)-N-(2-methyl-1,3-thiazol-5-yl)benzamide dihydrochloride] | < 0.1 µM | > 10 µM | – | – | – | – | – | – | – | – | > 10 µM | – | – |
| – | Cc1ncc(NC(=O)c2cccc([C@@H]3C[C@H]3NC3CCC(F)(F)CC3)c2)s1 (relative stereo) [Example 211, 3-(trans-2-((4,4-difluorocyclohexyl)amino)cyclopropyl)-N-(2-methyl-1,3-thiazol-5-yl)benzamide dihydrochloride] | < 0.1 µM | > 10 µM | – | – | – | – | – | – | – | – | > 10 µM | – | – |
| – | Cc1cc(NC(=O)c2cccc([C@@H]3C[C@H]3NC3CCC(F)(F)CC3)c2)on1 (relative stereo) [Example 216, 3-(trans-2-((4,4-difluorocyclohexyl)amino)cyclopropyl)-N-(3-methyl-1,2-oxazol-5-yl)benzamide hydrochloride] | < 0.1 µM | > 10 µM | – | – | – | – | – | – | – | – | > 10 µM | – | – |
| – | O=C(Nc1cnn(Cc2ccc(F)cc2)c1)c1cccc([C@@H]2C[C@H]2NC2CCOCC2)c1 (relative stereo) [Example 217, N-(1-(4-fluorobenzyl)-1H-pyrazol-4-yl)-3-(trans-2-(tetrahydro-2H-pyran-4-ylamino)cyclopropyl)benzamide dihydrochloride] | < 0.1 µM | > 10 µM | – | – | – | – | – | – | – | – | > 10 µM | – | – |
| – | CC(=O)N1CCC(N[C@@H]2C[C@H]2c2cccc(C(=O)Nc3cnn(Cc4ccc(F)cc4)c3)c2)CC1 (relative stereo) [Example 218, 3-(trans-2-((1-acetylpiperidin-4-yl)amino)cyclopropyl)-N-(1-(4-fluorobenzyl)-1H-pyrazol-4-yl)benzamide dihydrochloride] | < 0.1 µM | > 10 µM | – | – | – | – | – | – | – | – | > 10 µM | – | – |
| 4.5 | Cc1cc(NC(=O)c2cccc([C@@H]3C[C@H]3NCC3CCOCC3)c2)no1 (relative stereo) [Example 231, N-(5-methyl-1,2-oxazol-3-yl)-3-(trans-2-((tetrahydro-2H-pyran-4-ylmethyl)amino)cyclopropyl)benzamide] | < 0.1 µM | > 10 µM | 93.7% | 99.7% | 75.7% | 90.4% | 95.0% | 77.1% | – | – | > 10 µM | 527 ng/g | 117 ng/mL |
| – | Cn1cc(NC(=O)c2ccc(F)c([C@@H]3C[C@H]3NCC3CC3)c2)cn1 (relative stereo) [Example 237, 3-(trans-2-((cyclopropylmethyl)amino)cyclopropyl)-4-fluoro-N-(1-methyl-1H-pyrazol-4-yl)benzamide dihydrochloride] | < 0.1 µM | > 10 µM | 90.3% | 98.8% | 83.9% | 91.9% | 96.5% | 86.7% | 237 ng/g | 523 ng/mL | > 10 µM | – | – |
| – | O=C(NCC(c1ccccc1)N1CCOCC1)c1ccc(C2CC2NCC2CC2)cc1 (stereo not drawn) [Example 24, 4-(trans-2-((cyclopropylmethyl)amino)cyclopropyl)-N-(2-(morpholin-4-yl)-2-phenylethyl)benzamide bis(trifluoroacetate)] | < 0.1 µM | > 10 µM | – | – | – | – | – | – | – | – | > 10 µM | – | – |
